One compound from US20140073637A1, “AMINO-SUBSTITUTED-ALKYLOXY-BENZO[E]PYRIDO[4,3-B]INDOLE DERIVATIVES AS NEW POTENT KINASE INHIBITORS” (INSTITUT CURIE, priority 2011, published 2014) can be followed below.

Molecules are shown by their SMILES.

One experiment deals with Brsk1 (Homo sapiens, UniProt Q8TDC3). Kind of experiment: Kinase profiling in vitro at 1 μM. Format: biochemical. Particulars: 1 microMolar in vitro, read-out: Percent of remaining activity. How it is done: (§1) The specificity of C14 was tested, in vitro, against 121 kinases representative of the kinome. Assays run in duplicate, at the concentration of 1 μM, were performed by MRC (Dundee, UK). Results are represented in FIG. 1. The main targets are highlighted in FIG. 1B. The profiling was performed at the MRC (Dundee University), in duplicate, on a set of 121 kinases. The panel is representative of the major different classes of kinases. Compounds were used at the concentration of 1 μM. In vitro, IC50 were determined on recombinant kinases by Reaction biology Corp (USA).

A further experiment has as its target CAMKKb (Homo sapiens, UniProt Q96RR4). Kind of experiment: Kinase profiling in vitro at 1 μM. The conditions noted are these: 1 microMolar in vitro, read-out: Percent of remaining activity. Format: biochemical. How it is done: as §1
Another experiment concerns the target FGFR1 (Homo sapiens, UniProt P11362). Put plainly: Kinase profiling in vitro at 1 μM. Format: biochemical. Particulars: 1 microMolar in vitro, read-out: Percent of remaining activity. The method, then: as §1
The next experiment addresses Gck (Homo sapiens, UniProt Q12851). Put plainly: Kinase profiling in vitro at 1 μM. Format: biochemical. The conditions noted are these: 1 microMolar in vitro, read-out: Percent of remaining activity. The method, then:
as §1

The next experiment deals with IR (Homo sapiens, UniProt P06213). Kind of experiment: Kinase profiling in vitro at 1 μM. Format: biochemical. The conditions noted are these: 1 microMolar in vitro, read-out: Percent of remaining activity. The method, then: as §1
A further experiment deals with IRAK4 (Homo sapiens, UniProt Q9NWZ3). Put plainly: Kinase profiling in vitro at 1 μM. Format: biochemical. Particulars: 1 microMolar in vitro, read-out: Percent of remaining activity. The method, then: as §1
Another experiment addresses Jak2 (Homo sapiens, UniProt O60674). Put plainly: Kinase profiling in vitro at 1 μM. Format: biochemical. The conditions noted are these: 1 microMolar in vitro, read-out: Percent of remaining activity. The method, then:
as §1

Another experiment addresses MELK (Homo sapiens, UniProt Q14680). Kind of experiment: Kinase profiling in vitro at 1 μM. Format: biochemical. The conditions noted are these: 1 microMolar in vitro, read-out: Percent of remaining activity. How it is done:
as §1

The target in the next experiment is MLK1 (Homo sapiens, UniProt P80192). Put plainly: Kinase profiling in vitro at 1 μM. Format: biochemical. The conditions noted are these: 1 microMolar in vitro, read-out: Percent of remaining activity. The method, then: as §1
The target of experiment [1] is T1, NUAK1 (Homo sapiens, UniProt O60285).
T1 construct: Reaction biology Corp (USA), service
T1 sequence (O60285 1-661): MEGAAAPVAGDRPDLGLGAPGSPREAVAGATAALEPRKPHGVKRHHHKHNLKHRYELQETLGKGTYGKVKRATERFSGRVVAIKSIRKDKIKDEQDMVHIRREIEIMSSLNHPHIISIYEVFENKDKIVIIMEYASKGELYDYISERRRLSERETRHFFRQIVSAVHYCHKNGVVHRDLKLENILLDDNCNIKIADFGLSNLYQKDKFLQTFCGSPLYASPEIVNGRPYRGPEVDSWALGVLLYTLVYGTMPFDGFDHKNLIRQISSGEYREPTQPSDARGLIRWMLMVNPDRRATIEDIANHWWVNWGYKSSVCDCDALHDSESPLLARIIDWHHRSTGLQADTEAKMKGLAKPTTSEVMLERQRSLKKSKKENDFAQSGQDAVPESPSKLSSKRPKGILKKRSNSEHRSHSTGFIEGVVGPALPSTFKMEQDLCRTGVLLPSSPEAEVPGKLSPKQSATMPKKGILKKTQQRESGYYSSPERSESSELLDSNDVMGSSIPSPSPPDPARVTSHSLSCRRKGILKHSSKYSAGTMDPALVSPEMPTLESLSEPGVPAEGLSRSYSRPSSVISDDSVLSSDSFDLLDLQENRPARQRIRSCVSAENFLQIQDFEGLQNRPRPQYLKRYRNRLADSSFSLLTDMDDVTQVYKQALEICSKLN
Put plainly: Kinase profiling in vitro at 1 μM. Particulars: 1 microMolar in vitro, read-out: Percent of remaining activity. Format: biochemical. The method, then:
as §1

A further experiment deals with Phk. Put plainly: Kinase profiling in vitro at 1 μM. Format: biochemical. The conditions noted are these: 1 microMolar in vitro. The method, then: as §1
The target in a further experiment is STK33 (Homo sapiens, UniProt Q9BYT3). Put plainly: Kinase profiling in vitro at 1 μM. The conditions noted are these: 1 microMolar in vitro, read-out: Percent of remaining activity. Format: biochemical. How it is done: as §1
The target of a further experiment is Tak1 (Homo sapiens, UniProt O43318). Put plainly: Kinase profiling in vitro at 1 μM. Format: biochemical. The conditions noted are these: 1 microMolar in vitro, read-out: Percent of remaining activity. The method, then:
as §1

In a further experiment the target is TrkA (Homo sapiens, UniProt P04629). Put plainly: Kinase profiling in vitro at 1 μM. Format: biochemical. The conditions noted are these: 1 microMolar in vitro, read-out: Percent of remaining activity. How it is done: as §1
The test system of the next experiment is VEGFR. Put plainly: Kinase profiling in vitro at 1 μM. Format: biochemical. Particulars: 1 microMolar in vitro. The method, then: as §1
In another experiment the test system is H358 spheroids. Put plainly: Multicellular tumour spheroid (MTS) growth. Format: cell-based. The method, then:
H358 cells were cultured in 3-Dimensions. At day 1, the compound was added at the concentration of 0.6 μM. The spheroid growth was measured each day and expressed as a growth ratio (Vd−Vo/Vo); d for day and o for the starting day. The evolution of the volume of the spheroids is expressed in function of the time (in days). Spheroids grown in the presence of C1 are indicated by triangles whereas rectangles indicate spheroids treated by C14; control spheroids are visualized by diamonds.
In order to get some insight in C14 effects towards organized cells, the inventors have followed H358 spheroid expansion (FIG. 9). Organized 3-dimension spheroids were treated by either C14 (0.5 μM) or C1 (0.5 μM) or DMSO (control). […] C14 was thus found efficient to prevent cell growth even when cells mimicked tissue organization.
The inventors applied the hanging-drop method to produce H358 spheroids of similar diameters. 1400 cells were suspended on the lid of an agar coated 24-petri dishes containing culture medium. 48 h later, the spheroids were transferred to the culture medium. Spheroid volumes were measured before (Day 0) and during the drug treatment (Day N). H358 spheroids were treated by compounds at the concentration of 0.6 μM. Control H358 spheroids were grown under the same conditions without drug treatment. The size of each spheroid was determined by measuring 2 diameters (d1 and d2) using an inverted microscope. The volume was calculated according to the formula: V=4/3π^3 where r=½√d1xd2. Spheroid growth was calculated by measuring the variations in volume and compared to the initial volume V0. The growth ratio was defined as (Vd−Vo)/Vo. Data are the mean of at least three determinations on different spheroids.

The target in experiment [2] is T1, NUAK1. Kind of experiment: In vitro IC50 on recombinant kinase. Format: biochemical. The method, then: The efficiency of the 3-amino-ethoxy compounds to inhibit Nuak1 was determined in vitro.
The profiling was performed at the MRC (Dundee University), in duplicate, on a set of 121 kinases. The panel is representative of the major different classes of kinases. Compounds were used at the concentration of 1 μM. In vitro, IC50 were determined on recombinant kinases by Reaction biology Corp (USA).

Sequence of CAMKKb (Q96RR4 whole entry, species assumed): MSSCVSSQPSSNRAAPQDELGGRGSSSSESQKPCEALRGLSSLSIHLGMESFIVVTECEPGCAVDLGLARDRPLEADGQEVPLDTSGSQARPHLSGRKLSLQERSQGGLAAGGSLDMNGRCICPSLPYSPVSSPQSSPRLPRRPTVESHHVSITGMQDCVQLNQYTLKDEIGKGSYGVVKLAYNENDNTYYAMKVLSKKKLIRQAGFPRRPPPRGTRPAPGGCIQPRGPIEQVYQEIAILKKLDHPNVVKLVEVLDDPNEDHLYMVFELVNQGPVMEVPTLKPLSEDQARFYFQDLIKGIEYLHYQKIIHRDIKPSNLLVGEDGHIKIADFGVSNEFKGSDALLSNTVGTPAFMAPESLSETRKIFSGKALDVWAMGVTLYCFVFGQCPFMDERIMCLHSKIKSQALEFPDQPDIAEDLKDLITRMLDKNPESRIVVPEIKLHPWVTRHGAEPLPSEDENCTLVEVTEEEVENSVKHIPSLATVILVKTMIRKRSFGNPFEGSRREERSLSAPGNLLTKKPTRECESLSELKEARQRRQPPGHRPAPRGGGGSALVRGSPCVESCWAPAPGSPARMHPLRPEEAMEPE
Sequence of IRAK4 (Q9NWZ3 whole entry, species assumed): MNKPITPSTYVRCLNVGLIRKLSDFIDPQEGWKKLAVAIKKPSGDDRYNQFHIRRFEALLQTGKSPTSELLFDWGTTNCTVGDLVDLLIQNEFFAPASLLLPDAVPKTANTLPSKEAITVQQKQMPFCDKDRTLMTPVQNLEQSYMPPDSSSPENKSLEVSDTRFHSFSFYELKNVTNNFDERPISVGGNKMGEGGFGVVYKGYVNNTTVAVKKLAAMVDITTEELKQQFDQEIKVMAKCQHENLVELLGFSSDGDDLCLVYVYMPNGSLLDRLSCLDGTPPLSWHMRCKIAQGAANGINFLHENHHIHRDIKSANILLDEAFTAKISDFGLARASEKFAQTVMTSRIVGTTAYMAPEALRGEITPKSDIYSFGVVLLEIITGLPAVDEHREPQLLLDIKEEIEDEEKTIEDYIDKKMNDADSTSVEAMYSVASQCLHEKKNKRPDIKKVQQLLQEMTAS
Sequence of FGFR1 (P11362 22-822, species assumed): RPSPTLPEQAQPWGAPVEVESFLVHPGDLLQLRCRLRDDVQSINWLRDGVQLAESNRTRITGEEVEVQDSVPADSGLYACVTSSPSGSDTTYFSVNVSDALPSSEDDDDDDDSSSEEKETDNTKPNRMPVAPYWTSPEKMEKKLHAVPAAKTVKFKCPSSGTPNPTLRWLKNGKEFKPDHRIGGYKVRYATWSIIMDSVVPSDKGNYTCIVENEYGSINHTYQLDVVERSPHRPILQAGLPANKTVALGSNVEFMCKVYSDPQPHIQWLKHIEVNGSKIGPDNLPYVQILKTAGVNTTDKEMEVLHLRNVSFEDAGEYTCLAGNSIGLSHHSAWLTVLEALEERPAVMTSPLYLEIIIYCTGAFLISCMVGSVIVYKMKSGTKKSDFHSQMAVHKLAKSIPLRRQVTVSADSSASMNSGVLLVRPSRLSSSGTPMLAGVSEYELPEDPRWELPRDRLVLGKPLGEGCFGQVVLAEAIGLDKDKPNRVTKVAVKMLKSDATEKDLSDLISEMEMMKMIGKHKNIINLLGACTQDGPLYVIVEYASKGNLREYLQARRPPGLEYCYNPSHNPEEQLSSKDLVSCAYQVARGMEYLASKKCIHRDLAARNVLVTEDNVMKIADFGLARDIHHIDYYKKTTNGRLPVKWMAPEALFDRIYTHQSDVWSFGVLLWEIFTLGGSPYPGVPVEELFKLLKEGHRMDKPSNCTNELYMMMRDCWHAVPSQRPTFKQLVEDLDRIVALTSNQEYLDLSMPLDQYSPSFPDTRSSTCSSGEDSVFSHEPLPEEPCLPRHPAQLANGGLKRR
Sequence of IR (P06213 28-1382): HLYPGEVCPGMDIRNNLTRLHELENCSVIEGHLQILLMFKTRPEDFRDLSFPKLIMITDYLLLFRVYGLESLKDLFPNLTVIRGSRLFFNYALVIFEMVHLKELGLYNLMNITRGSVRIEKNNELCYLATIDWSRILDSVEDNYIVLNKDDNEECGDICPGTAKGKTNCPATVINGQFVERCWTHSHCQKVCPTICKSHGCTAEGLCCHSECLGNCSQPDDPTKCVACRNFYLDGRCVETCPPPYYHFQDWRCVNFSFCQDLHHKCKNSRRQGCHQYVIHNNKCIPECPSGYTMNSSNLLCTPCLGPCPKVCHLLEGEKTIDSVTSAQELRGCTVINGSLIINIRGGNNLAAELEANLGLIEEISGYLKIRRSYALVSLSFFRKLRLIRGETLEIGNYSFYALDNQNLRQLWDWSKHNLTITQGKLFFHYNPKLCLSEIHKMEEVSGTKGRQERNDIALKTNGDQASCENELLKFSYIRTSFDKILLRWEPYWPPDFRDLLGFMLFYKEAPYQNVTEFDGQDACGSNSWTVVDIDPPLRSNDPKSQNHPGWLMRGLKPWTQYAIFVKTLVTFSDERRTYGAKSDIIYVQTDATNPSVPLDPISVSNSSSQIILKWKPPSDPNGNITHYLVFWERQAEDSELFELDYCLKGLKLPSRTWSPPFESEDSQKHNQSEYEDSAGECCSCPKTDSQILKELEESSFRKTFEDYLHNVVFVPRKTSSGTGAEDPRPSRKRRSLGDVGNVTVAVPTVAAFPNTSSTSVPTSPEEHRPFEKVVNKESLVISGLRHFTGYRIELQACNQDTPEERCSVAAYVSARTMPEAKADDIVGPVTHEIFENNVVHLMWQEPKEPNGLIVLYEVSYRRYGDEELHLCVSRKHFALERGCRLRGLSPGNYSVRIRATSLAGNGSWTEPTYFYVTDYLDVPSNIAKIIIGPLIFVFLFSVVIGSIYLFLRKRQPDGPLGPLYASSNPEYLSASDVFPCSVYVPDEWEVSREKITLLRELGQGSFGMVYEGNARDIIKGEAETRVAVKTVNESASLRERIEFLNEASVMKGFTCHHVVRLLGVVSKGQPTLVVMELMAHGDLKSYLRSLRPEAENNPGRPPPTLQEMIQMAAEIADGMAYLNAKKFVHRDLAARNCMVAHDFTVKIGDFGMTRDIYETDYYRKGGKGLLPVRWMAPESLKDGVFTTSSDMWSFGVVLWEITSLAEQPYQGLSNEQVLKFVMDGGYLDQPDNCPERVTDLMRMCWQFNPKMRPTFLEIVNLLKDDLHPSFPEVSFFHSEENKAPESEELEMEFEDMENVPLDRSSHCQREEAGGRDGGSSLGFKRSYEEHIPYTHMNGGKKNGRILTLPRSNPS
Sequence of TrkA (P04629 33-796, species assumed): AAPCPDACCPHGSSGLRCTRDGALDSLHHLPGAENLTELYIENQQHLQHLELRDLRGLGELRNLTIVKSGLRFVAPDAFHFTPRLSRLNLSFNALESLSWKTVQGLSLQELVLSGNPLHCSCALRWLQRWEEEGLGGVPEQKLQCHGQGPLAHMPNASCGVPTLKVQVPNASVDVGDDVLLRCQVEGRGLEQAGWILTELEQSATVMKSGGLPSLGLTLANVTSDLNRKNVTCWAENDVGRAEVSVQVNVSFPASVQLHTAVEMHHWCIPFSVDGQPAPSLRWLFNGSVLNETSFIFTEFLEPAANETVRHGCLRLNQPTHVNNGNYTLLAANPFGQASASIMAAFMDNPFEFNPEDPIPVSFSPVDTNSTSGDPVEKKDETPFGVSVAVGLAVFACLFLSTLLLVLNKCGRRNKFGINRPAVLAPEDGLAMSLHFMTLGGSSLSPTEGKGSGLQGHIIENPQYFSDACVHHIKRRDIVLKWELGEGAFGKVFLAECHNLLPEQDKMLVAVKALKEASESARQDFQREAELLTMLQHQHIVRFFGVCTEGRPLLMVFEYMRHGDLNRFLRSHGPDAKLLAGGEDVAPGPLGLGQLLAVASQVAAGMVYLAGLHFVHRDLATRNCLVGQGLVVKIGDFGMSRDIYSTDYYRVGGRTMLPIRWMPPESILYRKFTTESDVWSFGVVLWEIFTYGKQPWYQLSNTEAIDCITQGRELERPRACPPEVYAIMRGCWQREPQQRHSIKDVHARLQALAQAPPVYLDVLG
Sequence of Gck (Q12851 whole entry): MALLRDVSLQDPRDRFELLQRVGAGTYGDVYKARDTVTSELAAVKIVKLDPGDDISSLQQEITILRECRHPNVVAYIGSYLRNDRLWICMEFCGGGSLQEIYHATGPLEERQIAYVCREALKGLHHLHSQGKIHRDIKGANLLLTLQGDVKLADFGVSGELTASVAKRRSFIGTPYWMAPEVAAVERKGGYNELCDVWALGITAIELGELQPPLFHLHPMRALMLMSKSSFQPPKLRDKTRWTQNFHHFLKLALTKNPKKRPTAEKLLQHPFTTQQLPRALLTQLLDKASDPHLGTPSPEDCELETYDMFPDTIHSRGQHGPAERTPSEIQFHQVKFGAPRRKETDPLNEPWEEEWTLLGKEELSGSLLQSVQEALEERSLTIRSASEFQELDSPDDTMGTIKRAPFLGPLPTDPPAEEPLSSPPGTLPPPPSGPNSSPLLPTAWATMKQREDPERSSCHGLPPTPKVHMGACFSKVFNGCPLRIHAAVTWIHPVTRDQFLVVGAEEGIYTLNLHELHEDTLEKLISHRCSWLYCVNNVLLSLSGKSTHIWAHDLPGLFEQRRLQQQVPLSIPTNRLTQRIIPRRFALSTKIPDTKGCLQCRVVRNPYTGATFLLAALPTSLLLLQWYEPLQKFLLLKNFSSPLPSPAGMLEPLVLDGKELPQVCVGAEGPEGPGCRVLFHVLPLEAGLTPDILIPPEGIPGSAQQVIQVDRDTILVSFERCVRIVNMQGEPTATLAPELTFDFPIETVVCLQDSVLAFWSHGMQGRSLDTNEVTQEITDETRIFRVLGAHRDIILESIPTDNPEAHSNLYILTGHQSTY

With `Cc1c[nH]c(=O)c2c1[nH]c1ccc3cc(OCCN(C)C)ccc3c12` [Compound C14, 3-(2-N,N-Dimethylaminoethoxy)-8-methyl-7H,10H-benzo[e]pyrido(4,3-b)indol-11-one], the remaining activity at 1 µM on Brsk1 stood at 22%; at CAMKKb it was 22%; at FGFR1, 24%; at Gck, 11%; on IR it was 15%; at IRAK4, 25%. Moreover, the remaining activity at 1 µM is 21% on Jak2; 31% at MELK; 27% on MLK1; 4% at NUAK1 [1]; 31% at STK33; 6% on Tak1. The remaining activity at 1 µM at TrkA turned out to be 5%. The “Percent of remaining activity” value in the experiment with Phk is 10%; in the experiment on VEGFR, 16%. Besides, the “duration of effect on spheroid growth” value in the experiment with H358 spheroids (0.5 μM, 0.6 μM) is given as “at least 5 days”. For the same compound, the “effect on 3D-H358 cell (spheroid) growth (in words)” value in the experiment on H358 spheroids (0.5 μM, 0.6 μM) was “affected significantly”. Moreover, in the experiment on H358 spheroids (day 10, compared with C1-treated spheroids), the “spheroid size at day 10 (in words)” value is “smaller than their counterparts treated by C1”. Further, the IC50 on NUAK1 [2] is 1.4 nM.

What is called remaining activity is what remains of the control signal, in per cent. What is called IC50 is the concentration that inhibits the measured activity by half.
